Assay results published in patent publication US12661410B2, “Compounds for targeted degradation of RET” (C4 Therapeutics, Inc., priority 2020, dated 2026).
Substitutions are numbered along the chain they refer to. Where two headings read alike, the source gives them in different places.

Columns and labels:
[1] = target: T1, RET (658-1114) (Homo sapiens, UniProt P07949); assay: HiBiT-Degradation, RET wild-type degradation assay (Nano-Glo HiBiT Lytic), 293T.144 cells; format: cell-based; settings: for DC50 / Emax: 6.0 hours
T1 construct: 658-1114; expressed in transfected cells; host or cells: 293T.144 (293T cells, generated in-house)
T1 sequence (P07949 658-1114): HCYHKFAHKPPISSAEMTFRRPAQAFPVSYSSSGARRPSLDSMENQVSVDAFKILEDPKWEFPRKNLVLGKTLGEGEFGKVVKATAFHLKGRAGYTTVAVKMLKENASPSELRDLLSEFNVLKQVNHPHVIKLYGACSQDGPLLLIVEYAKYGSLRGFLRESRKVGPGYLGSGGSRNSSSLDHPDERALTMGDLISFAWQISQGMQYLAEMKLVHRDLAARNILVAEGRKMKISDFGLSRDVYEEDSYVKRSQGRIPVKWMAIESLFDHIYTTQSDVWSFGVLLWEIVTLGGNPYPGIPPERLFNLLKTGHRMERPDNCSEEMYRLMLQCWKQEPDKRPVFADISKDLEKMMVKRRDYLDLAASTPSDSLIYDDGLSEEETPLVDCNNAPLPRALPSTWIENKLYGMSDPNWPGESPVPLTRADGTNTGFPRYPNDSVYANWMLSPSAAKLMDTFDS
Text: (§1) Dulbecco's modified Eagle medium (DMEM) no-phenol red media and fetal bovine serum (FBS) were purchased from Gibco (Grand Island, NY, USA). Cell lines ectopically expressing wild-type or G810R RET kinase domain fused with a HiBiT tag were generated in-house (293T. 144 and 293T. 165, respectively). Cell culture flasks and 384-well microplates were acquired from VWR (Radnor, PA, USA). The Nano-Glo® HiBiT Lytic Assay System was purchased from Promega (Madison, WI, USA).
(§2) RET wild-type (WT) and G810R degradation were assessed using the Nano-Glo® HiBiT Lytic assay (Promega, Medison, WI, USA). To determine the effect of degraders on protein levels, cells were plated in 384-well plates and treated with compounds of interest in duplicates for 6 hours using an 11-point half-log dilution series, with the highest dose set at 10 μM. Cell lysis and addition of the Nano-Glo® HiBiT Lytic Assay reagents was then performed. Luminescence signal was measured using an EnVision™ Multimode plate reader (Perkin Elmer, Santa Clara, CA, USA). The half-maximal degradation concentration (DC50) and % remaining protein (Emax) was then derived from the dose-response curves.

[2] = target: T2, RET(KD: 658-1114 G810R) (Homo sapiens, UniProt P07949, G810R); assay: HiBiT-Degradation, RET G810R degradation assay (Nano-Glo HiBiT Lytic), 293T.165 cells; format: cell-based; settings: for Emax / DC50: 6.0 hours
T2 construct: 658-1114; expressed in transfected cells; host or cells: 293T.165 (293T cells, generated in-house)
T2 sequence (P07949 658-1114 G810R): T1 sequence (P07949 658-1114) with G153R
Text: as §1, §2

[3] = RET wild-type, read-out: HiBiT-Degradation 293T.144 RET (658-1114) 6.0 hours (DC50)
[4] = RET wild-type, read-out: HiBiT-Degradation 293T.144 RET (658-1114) 6.0 hours (Emax)
[5] = % remaining protein, read-out: 293T.165 RET(KD: 658-1114 G810R) 6.0 hours (Emax)
[6] = half-maximal degradation concentration, read-out: 293T.165 RET(KD: 658-1114 G810R) 6.0 hours (DC50)
[7] = RET G810R, read-out: HiBiT-Degradation 293T.165 RET(KD: 658-1114 G810R) 6.0 hours (DC50)
[8] = RET G810R, read-out: HiBiT-Degradation 293T.165 RET(KD: 658-1114 G810R) 6.0 hours (Emax)
[9] = % remaining protein, read-out: 293T.144 RET (658-1114) 6.0 hours (Emax)
[10] = half-maximal degradation concentration, read-out: 293T.144 RET (658-1114) 6.0 hours (DC50)

CCC1(C(=O)NC(C)C)CCN(c2ccc(-c3nc(-c4cnn(C5CCN(C(=O)CC6(O)CCN(c7ccc(N[C@@H]8CCC(=O)NC8=O)cc7F)CC6)CC5)c4)cn4ncc(C#N)c34)cn2)CC1 (single isomer, unassigned) [Compound 79]
HiBiT-Degradation 293T.144 RET (658-1114) 6.0 hours (IP) [nM] ([1]; RET wild-type): ++++ (< 50 nM = ++++)
DC50 [1, 3]: < 0.05 µM
Emax [1, 4]: < 30%
Emax [2, 5]: < 30%
DC50 [2, 6]: < 0.05 µM
HiBiT-Degradation 293T.165 RET(KD: 658-1114 G810R) 6.0 hours (IP) [nM] ([2]; RET G810R): ++++ (< 50 nM = ++++)
DC50 [2, 7]: < 0.05 µM
Emax [2, 8]: < 30%

CCC1(C(=O)NC(C)C)CCN(c2ccc(-c3nc(-c4cnn(C5CCN(C(=O)CC6(O)CCN(c7ccc(N[C@H]8CCC(=O)NC8=O)cc7F)CC6)CC5)c4)cn4ncc(C#N)c34)cn2)CC1 (single isomer, unassigned) [Compound 80]
HiBiT-Degradation 293T.144 RET (658-1114) 6.0 hours (IP) [nM] ([1]; RET wild-type): ++++ (< 50 nM = ++++)
DC50 [1, 3]: < 0.05 µM
Emax [1, 4]: < 30%
Emax [2, 5]: < 50%
DC50 [2, 6]: < 0.05 µM
HiBiT-Degradation 293T.165 RET(KD: 658-1114 G810R) 6.0 hours (IP) [nM] ([2]; RET G810R): ++++ (< 50 nM = ++++)
DC50 [2, 7]: < 0.05 µM
Emax [2, 8]: < 50%

CCC1(C(=O)NC(C)C)CCN(c2ccc(-c3cc(-c4cnn([C@H]5CC[C@H](N6CCC(c7ccc(NC8CCC(=O)NC8=O)cc7F)CC6)CC5)c4)cn4ncc(C#N)c34)cn2)CC1 (single isomer, unassigned) [Compound 87, 1-(5-(3-cyano-6-(1-((1r, 4r)-4-(4-(4-((2,6-dioxopiperidin-3-yl)amino)-2-fluorophenyl)piperidin-1-yl)cyclohexyl)-1H-pyrazol-4-yl)pyrazolo[1,5-a]pyridin-4-yl)pyridin-2-yl)-4-ethyl-N-isopropylpiperidine-4-carboxamide]
HiBiT-Degradation 293T.144 RET (658-1114) 6.0 hours (IP) [nM] ([1]; RET wild-type): ++++ (< 50 nM = ++++)
DC50 [1, 3]: < 0.05 µM
Emax [1, 4]: < 30%
Emax [2, 5]: < 30%
HiBiT-Degradation 293T.165 RET(KD: 658-1114 G810R) 6.0 hours (IP) [nM] ([2]; RET G810R): ++++ (< 50 nM = ++++)
Emax [2, 8]: < 30%

CCC1(C(=O)NC(C)C)CCN(c2ccc(-c3nc(-c4cnn([C@H]5CC[C@H](N6CCC(c7ccc(N[C@H]8CCC(=O)NC8=O)cc7F)CC6)CC5)c4)cn4ncc(C#N)c34)cn2)CC1 (single isomer, unassigned) [Compound 123]
293T.144 RET (658-1114) 6.0 hours (IP) [nM] [1]: ++++ (<50 nM = ++++)
Emax [1, 9]: < 30%
DC50 [1, 10]: < 0.05 µM
293T.165 RET(KD: 658-1114 G810R) 6.0 hours (IP) [nM] [2]: ++++ (<50 nM = ++++)
Emax [2, 5]: < 30%
DC50 [2, 6]: < 0.05 µM

CCC1(C(=O)NC(C)C)CCN(c2ccc(-c3nc(-c4cnn([C@H]5CC[C@H](N6CCC(c7ccc(N[C@@H]8CCC(=O)NC8=O)cc7F)CC6)CC5)c4)cn4ncc(C#N)c34)cn2)CC1 (single isomer, unassigned) [Compound 124]
293T.144 RET (658-1114) 6.0 hours (IP) [nM] [1]: ++++ (<50 nM = ++++)
Emax [1, 9]: < 30%
DC50 [1, 10]: < 0.05 µM
293T.165 RET(KD: 658-1114 G810R) 6.0 hours (IP) [nM] [2]: ++++ (<50 nM = ++++)
Emax [2, 5]: < 30%
DC50 [2, 6]: < 0.05 µM

CCC1(NC(=O)C(C)C)CCN(c2ccc(-c3nc(-c4cnn([C@H]5CC[C@@H](N6CCN(c7ccc8c(N9CCC(=O)NC9=O)nn(C)c8c7F)CC6)CC5)c4)cn4ncc(C#N)c34)cn2)CC1 (single isomer, unassigned) [Compound 125, N-(1-(5-(3-Cyano-6-(1-((1s, 4s)-4-(4-(3-(2,4-dioxotetrahydropyrimidin-1(2H)-yl)-7-fluoro-1-methyl-1H-indazol-6-yl)piperazin-1-yl)cyclohexyl)-1H-pyrazol-4-yl)pyrazolo[1,5-a]pyrazin-4-yl)pyridin-2-yl)-4-ethylpiperidin-4-yl)isobutyramide]
293T.144 RET (658-1114) 6.0 hours (IP) [nM] [1]: ++++ (<50 nM = ++++)
Emax [1, 9]: < 30%
DC50 [1, 10]: < 0.05 µM
293T.165 RET(KD: 658-1114 G810R) 6.0 hours (IP) [nM] [2]: ++++ (<50 nM = ++++)
Emax [2, 5]: < 30%
DC50 [2, 6]: < 0.05 µM

CCC1(C(=O)NC2CCC2)CCN(c2ccc(-c3nc(-c4cnn([C@H]5CC[C@H](N6CCC(c7ccc(NC8CCC(=O)NC8=O)cc7)CC6)CC5)c4)cn4ncc(C#N)c34)cn2)CC1 (single isomer, unassigned) [Compound 126, 1-(5-(3-cyano-6-(1-((1r, 4r)-4-(4-(4-((2,6-dioxopiperidin-3-yl)amino)phenyl)piperidin-1-yl)cyclohexyl)-1H-pyrazol-4-yl)pyrazolo[1,5-a]pyrazin-4-yl)pyridin-2-yl)-N-cyclobutyl-4-ethylpiperidine-4-carboxamide]
293T.144 RET (658-1114) 6.0 hours (IP) [nM] [1]: ++++ (<50 nM = ++++)
Emax [1, 9]: < 30%
DC50 [1, 10]: < 0.05 µM
293T.165 RET(KD: 658-1114 G810R) 6.0 hours (IP) [nM] [2]: ++++ (<50 nM = ++++)
Emax [2, 5]: < 30%
DC50 [2, 6]: < 0.05 µM

CCC1(C(=O)NC2CCC2)CCN(c2ccc(-c3nc(-c4cnn([C@H]5CC[C@H](N6CCC(c7ccc(N[C@H]8CCC(=O)NC8=O)cc7)CC6)CC5)c4)cn4ncc(C#N)c34)cn2)CC1 (single isomer, unassigned) [Compound 127]
293T.144 RET (658-1114) 6.0 hours (IP) [nM] [1]: ++++ (<50 nM = ++++)
Emax [1, 9]: < 30%
DC50 [1, 10]: < 0.05 µM
293T.165 RET(KD: 658-1114 G810R) 6.0 hours (IP) [nM] [2]: ++++ (<50 nM = ++++)
Emax [2, 5]: < 30%
DC50 [2, 6]: < 0.05 µM

CCC1(C(=O)NC2CCC2)CCN(c2ccc(-c3nc(-c4cnn([C@H]5CC[C@H](N6CCC(c7ccc(N[C@@H]8CCC(=O)NC8=O)cc7)CC6)CC5)c4)cn4ncc(C#N)c34)cn2)CC1 (single isomer, unassigned) [Compound 128]
293T.144 RET (658-1114) 6.0 hours (IP) [nM] [1]: ++++ (<50 nM = ++++)
Emax [1, 9]: < 30%
DC50 [1, 10]: < 0.05 µM
293T.165 RET(KD: 658-1114 G810R) 6.0 hours (IP) [nM] [2]: ++++ (<50 nM = ++++)
Emax [2, 5]: < 30%
DC50 [2, 6]: < 0.05 µM

CCC1(C(=O)NC2CCC2)CCN(c2ccc(-c3nc(-c4cnn([C@H]5CC[C@H](N6CCC(c7ccc8c(c7)CCN8[C@@H]7CCC(=O)NC7=O)CC6)CC5)c4)cn4ncc(C#N)c34)cn2)CC1 (single isomer, unassigned) [Compound 129]
293T.144 RET (658-1114) 6.0 hours (IP) [nM] [1]: ++++ (<50 nM = ++++)
Emax [1, 9]: < 30%
DC50 [1, 10]: < 0.05 µM
293T.165 RET(KD: 658-1114 G810R) 6.0 hours (IP) [nM] [2]: ++++ (<50 nM = ++++)
Emax [2, 5]: < 30%
DC50 [2, 6]: < 0.05 µM
